Test results taken from ChEMBL document CHEMBL1201862, “PubChem BioAssay data set” (2004).
Active and inactive are the calls of the source.

Experiments:
[1] = test system: Streptococcus sp. 'group A'; assay: Streptococcus pyogenes SK(-)GAS viability under kanamycin – luminescence, BacTiterGlo, confirmation, counter-screen for streptokinase expression inhibitor project, dose response (AID 1900); format: functional, organism-based
[2] = test system: BJ; assay: BJ-TERT fibroblast viability loss – cell-based, RAS-independent, luminescence, dose response (AID 1933); format: functional; conditions: Homo sapiens
[3] = cells; format: functional, cell-based
[4] = test system: Vero; assay: mammalian cell viability reduction – secondary assay, cytotoxicity control for West Nile virus antiviral project, dose response (AID 1650); format: functional; conditions: Chlorocebus sabaeus
[5] = test system: BJ; assay: cells; format: functional, cell-based; conditions: Homo sapiens
[6] = Trypanosoma cruzi growth suppression in host cells – NIH3T3 host cells, beta-gal luminescence, confirmation (AID 2044); format: functional, cell-based;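 also: intracellular parasites grown in NIH/3T3 mouse fibroblasts as host cells; luminescent beta-galactosidase reporter signal from transgenic T. cruzi replicating inside host cells; inhibitors lower the luminescence signal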
[7] = cells; format: functional, cell-based; remark: listed apart in the source
[8] = NIH3T3 cell viability loss – ATP luminescence, mouse fibroblasts, counter-screen, dose response (AID 2010); format: functional, cell-based;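 also: cells exposed to compound for about 90 hours before reading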
[9] = test system: BJ; assay: BJ-TERT-LT-ST fibroblast viability loss – cell-based, RAS-independent, luminescence, dose response (AID 1935); format: functional; conditions: Homo sapiens;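 also: BJ fibroblasts immortalized with TERT plus LT and ST oncogenes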
[10] = DRD fibroblast viability loss – cell-based, non-viral oncogenic, luminescence, dose response (AID 1934); format: functional; conditions: Homo sapiens
[11] = test system: Streptococcus; assay: GAS UMAA2166 growth inhibition – luminescence, BacTiterGlo, counter-screen for streptokinase expression inhibitor project, dose response (AID 1915); format: functional, organism-based;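 also: potency for reduction of bacterial viability or growth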
[12] = test system: Vero; assay: cells; format: functional, cell-based; conditions: Chlorocebus sabaeus
[13] = luciferase reporter signal suppression in cells – H4 neuroglioma cells, luminescence, dose response (AID 1990); format: functional, cell-based
[14] = Luminescence Cell-Based Dose Response HTS to Identify Inhibitors of 5'UTR Stem-Loop Driven Prion Protein mRNA Translation in H4 Neuroglioblastoma Cells. [Related pubchem assays: 1827 (Project Summary), 1813 (Primary HTS)]; format: functional
[15] = alpha-synuclein stem-loop luciferase translation blockers – H4 neuroglioma cells, luminescence, confirmation (AID 1988); format: functional, cell-based
[16] = Luminescence-based dose response cell-based high throughput screening assay for cytotoxic compounds using the IEC-6 intestinal epithelial cell line. [Related pubchem assays: 1858 (Summary AID.), 1825 (Counterscreen.), 1907 (Confirmation screen.)]; format: functional
[17] = HEK-293T cell viability reduction – luminescence, B-cell screen hits, cytotoxicity control for BCR NF-kB inhibitor project, dose response (AID 489021); format: functional, cell-based;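 also: HEK-293T cells carrying an NF-kB luciferase reporter; cells exposed to compound for about 14 hours before viability readout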
[18] = test system: BJ; assay: growth inhibition of engineered Ras-driven BJ cells – cell-based, alamar blue fluorescence, cherrypicked samples, dose response (AID 2631); format: functional; conditions: Homo sapiens;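 also: confirmatory dose-response assay in RAS-dependent BJ fibroblasts engineered with TERT, LT and ST, with cytotoxicity read by fluorescence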
[19] = test system: INS1; assay: INS-1E survival protection against cytokine death – cell-based, luminescence, retest, dose response (AID 449756); format: functional; conditions: Rattus norvegicus;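 also: cell death triggered by IL-1 beta plus TNF-alpha plus IFN-gamma mixture; protective hits raise ATP signal compared with cytokine alone wells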
[20] = molecular target: T1, Mannose-6-phosphate isomerase (Homo sapiens, UniProt P34949); assay: MPI enzyme activity inhibition – biochemical, fluorescence intensity, coupled assay, primary screen (AID 1209)
T1 sequence (P34949 whole entry): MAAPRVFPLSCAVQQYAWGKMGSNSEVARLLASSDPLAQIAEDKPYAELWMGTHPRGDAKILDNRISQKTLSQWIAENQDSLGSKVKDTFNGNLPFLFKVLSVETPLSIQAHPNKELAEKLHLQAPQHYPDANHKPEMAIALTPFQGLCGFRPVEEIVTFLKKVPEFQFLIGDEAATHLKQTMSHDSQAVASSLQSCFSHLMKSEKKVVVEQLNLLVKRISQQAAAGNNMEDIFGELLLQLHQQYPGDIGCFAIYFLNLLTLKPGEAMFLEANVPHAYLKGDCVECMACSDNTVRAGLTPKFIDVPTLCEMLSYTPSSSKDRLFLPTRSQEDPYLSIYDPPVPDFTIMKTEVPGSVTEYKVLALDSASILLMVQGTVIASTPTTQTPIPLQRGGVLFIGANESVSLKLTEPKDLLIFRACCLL

[21] = viability of PTEN-deleted HCT116 cells – cell-based, HCT116 PTEN knockout, dose response (AID 1047); format: functional;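 also: HCT116 colon tumor cells with PTEN knocked out; cells exposed to compound for 60 hours before readout; potency for loss of cell viability measured by luminescence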
[22] = viability of HCT116 lacking mutant beta-catenin – cell-based, human colon tumor, dose response (AID 1045); format: functional;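 also: HCT116 colon tumor cells with beta catenin knocked out; cells exposed to compound for 60 hours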
[23] = molecular target: T1, Mannose-6-phosphate isomerase; assay: MPI inhibition at elevated mannose 6-phosphate – biochemical, fluorescence intensity, high mannose 6-phosphate, primary screen (AID 1220)
[24] = molecular target: Peroxisome proliferator-activated receptor gamma/Nuclear receptor coactivator 2 (Homo sapiens, UniProt P37231); format: functional;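 also: agonist potency for raising coactivator recruitment to the receptor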
Peroxisome proliferator-activated receptor gamma/Nuclear receptor coactivator 2, sequence (P37231 whole entry): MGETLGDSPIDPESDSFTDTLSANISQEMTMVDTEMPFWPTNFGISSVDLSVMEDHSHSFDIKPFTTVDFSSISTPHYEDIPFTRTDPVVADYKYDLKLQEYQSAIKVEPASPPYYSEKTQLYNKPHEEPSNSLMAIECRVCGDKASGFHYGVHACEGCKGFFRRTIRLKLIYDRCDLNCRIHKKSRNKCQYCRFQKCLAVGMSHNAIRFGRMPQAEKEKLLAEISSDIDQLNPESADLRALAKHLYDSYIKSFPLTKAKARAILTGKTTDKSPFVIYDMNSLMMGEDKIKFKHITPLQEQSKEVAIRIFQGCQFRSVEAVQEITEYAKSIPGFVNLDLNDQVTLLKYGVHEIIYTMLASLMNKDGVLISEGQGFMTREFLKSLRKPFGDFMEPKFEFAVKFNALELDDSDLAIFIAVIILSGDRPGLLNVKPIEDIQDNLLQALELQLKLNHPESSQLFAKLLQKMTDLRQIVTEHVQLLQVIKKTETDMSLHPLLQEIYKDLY
Peroxisome proliferator-activated receptor gamma/Nuclear receptor coactivator 2, sequence (Q15596 whole entry, further chain): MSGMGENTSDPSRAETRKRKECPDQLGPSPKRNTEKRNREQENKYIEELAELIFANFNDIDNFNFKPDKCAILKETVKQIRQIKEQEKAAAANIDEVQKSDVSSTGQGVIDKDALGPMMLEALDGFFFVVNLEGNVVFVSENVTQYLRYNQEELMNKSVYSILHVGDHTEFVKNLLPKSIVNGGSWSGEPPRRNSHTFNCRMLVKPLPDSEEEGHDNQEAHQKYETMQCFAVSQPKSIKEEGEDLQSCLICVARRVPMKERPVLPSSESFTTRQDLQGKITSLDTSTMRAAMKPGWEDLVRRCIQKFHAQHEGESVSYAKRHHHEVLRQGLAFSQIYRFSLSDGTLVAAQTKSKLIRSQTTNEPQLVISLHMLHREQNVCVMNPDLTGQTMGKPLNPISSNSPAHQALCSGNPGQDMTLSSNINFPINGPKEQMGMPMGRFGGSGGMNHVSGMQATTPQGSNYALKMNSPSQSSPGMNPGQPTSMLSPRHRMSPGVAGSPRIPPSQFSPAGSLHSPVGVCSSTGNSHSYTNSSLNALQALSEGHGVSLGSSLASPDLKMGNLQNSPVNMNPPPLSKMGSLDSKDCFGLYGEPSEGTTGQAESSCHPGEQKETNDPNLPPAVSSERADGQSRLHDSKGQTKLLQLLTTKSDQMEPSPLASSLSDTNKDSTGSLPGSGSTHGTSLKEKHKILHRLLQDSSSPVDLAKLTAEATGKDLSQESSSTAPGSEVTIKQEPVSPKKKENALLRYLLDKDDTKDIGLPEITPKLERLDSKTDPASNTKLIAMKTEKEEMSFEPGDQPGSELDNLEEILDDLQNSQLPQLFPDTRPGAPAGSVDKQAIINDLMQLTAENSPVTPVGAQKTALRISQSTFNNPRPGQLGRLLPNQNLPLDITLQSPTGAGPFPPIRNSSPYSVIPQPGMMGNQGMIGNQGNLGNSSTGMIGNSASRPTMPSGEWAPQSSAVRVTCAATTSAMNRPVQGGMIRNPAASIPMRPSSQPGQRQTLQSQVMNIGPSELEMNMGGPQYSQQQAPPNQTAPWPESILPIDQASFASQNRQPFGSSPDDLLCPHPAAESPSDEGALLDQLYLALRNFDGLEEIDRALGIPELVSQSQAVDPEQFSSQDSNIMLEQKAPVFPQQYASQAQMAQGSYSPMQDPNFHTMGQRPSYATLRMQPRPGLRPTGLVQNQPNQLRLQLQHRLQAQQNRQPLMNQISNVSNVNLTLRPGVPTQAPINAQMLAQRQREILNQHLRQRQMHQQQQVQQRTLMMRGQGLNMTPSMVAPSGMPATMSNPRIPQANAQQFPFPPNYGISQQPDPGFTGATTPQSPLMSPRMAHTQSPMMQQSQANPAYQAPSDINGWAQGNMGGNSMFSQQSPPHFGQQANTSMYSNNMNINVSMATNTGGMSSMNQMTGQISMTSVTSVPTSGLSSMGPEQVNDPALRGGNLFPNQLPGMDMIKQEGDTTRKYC

[25] = molecular target: Peroxisome proliferator-activated receptor gamma/Nuclear receptor coactivator 1 (Homo sapiens, UniProt P37231); format: functional;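 also: agonist potency as compounds enhance coactivator SRC-1 recruitment to PPARgamma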
Peroxisome proliferator-activated receptor gamma/Nuclear receptor coactivator 1, sequence (P37231 whole entry): as the sequence (P37231 whole entry) above
Peroxisome proliferator-activated receptor gamma/Nuclear receptor coactivator 1, sequence (Q15788 whole entry, further chain): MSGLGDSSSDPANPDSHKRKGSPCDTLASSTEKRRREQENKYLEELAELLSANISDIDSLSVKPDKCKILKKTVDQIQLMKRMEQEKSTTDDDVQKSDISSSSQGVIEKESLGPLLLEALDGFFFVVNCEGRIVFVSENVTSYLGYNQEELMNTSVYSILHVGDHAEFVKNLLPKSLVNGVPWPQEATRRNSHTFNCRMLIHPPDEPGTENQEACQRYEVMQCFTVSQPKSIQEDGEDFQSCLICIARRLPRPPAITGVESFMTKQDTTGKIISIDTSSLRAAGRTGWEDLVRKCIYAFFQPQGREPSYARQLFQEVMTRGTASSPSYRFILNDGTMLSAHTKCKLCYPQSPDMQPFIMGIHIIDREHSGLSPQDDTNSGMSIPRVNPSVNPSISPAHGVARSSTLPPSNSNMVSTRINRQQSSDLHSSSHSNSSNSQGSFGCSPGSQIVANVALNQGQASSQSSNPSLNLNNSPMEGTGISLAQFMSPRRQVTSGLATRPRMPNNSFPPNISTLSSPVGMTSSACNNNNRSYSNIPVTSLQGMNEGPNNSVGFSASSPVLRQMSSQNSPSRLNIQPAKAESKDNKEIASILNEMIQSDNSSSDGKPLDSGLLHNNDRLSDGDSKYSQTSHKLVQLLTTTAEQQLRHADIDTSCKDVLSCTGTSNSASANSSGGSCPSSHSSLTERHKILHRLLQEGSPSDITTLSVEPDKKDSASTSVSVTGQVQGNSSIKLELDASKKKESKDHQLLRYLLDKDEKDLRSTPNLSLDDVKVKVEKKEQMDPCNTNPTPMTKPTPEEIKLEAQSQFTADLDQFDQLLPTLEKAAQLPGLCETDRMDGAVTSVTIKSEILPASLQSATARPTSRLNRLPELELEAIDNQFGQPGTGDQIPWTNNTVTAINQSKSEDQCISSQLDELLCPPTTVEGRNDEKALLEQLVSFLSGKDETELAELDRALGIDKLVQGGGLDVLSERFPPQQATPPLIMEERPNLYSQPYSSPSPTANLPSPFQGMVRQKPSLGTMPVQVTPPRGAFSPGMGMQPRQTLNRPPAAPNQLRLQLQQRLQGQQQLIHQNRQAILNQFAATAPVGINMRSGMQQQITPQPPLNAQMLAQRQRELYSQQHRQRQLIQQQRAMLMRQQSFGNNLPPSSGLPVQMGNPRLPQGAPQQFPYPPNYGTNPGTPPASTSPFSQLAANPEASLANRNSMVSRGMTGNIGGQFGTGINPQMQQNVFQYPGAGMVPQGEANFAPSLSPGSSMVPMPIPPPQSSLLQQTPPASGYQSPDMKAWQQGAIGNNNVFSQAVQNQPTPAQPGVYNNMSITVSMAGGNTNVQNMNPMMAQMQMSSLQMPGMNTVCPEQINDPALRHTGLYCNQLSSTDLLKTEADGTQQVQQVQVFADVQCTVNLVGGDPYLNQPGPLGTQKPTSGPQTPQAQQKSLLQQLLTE

[26] = molecular target: Peroxisome proliferator-activated receptor gamma/Nuclear receptor coactivator 3 (Homo sapiens, UniProt P37231); format: functional;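 also: agonist potency for raising coactivator recruitment to the receptor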
[27] = A Cell Based Secondary Assay To Explore Cytotoxicity of Compounds that Sensitize Mycobacterium Tuberculosis to Beta-Lactam Antibiotics.; format: functional
[28] = molecular target: Glyceraldehyde-3-phosphate dehydrogenase (Homo sapiens, UniProt P04406)
Glyceraldehyde-3-phosphate dehydrogenase, sequence (P04406 whole entry): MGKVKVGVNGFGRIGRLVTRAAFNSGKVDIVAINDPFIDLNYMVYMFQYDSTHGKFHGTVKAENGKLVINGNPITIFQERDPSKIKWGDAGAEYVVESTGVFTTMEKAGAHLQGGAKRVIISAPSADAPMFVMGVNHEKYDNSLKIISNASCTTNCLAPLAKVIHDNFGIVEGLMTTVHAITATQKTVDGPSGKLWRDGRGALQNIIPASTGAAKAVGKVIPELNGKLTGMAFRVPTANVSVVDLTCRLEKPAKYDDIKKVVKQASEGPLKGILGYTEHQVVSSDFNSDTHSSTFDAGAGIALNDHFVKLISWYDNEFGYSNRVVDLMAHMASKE

[29] = molecular target: T2, Bcl-2-related protein A1 (Mus musculus, UniProt Q07440); assay: small-molecule antagonists of Bfl-1/BH3 interaction – biochemical, TR-FRET, mouse Bfl-1, confirmation (AID 621);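 also: TR-FRET binding of GST-Bfl-1 to FITC-labelled Bid peptide via terbium antibody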
T2 sequence (Q07440 whole entry): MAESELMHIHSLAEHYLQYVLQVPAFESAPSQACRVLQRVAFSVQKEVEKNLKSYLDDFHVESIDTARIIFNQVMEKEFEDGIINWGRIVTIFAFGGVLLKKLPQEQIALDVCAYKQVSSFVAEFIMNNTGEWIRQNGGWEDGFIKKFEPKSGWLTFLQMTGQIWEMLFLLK

[30] = molecular target: T2, Bcl-2-related protein A1; assay: Bfl-1 binding inhibitors, SAR follow-up, biochemical, fluorescence polarization (AID 1070)
[31] = molecular target: T3, NADPH oxidase 1 (Homo sapiens, UniProt Q9Y5S8); assay: Luminescence-based cell-based dose response assay to identify inhibitors of NADPH oxidase 1 (NOX1).; format: functional
T3 sequence (Q9Y5S8 whole entry): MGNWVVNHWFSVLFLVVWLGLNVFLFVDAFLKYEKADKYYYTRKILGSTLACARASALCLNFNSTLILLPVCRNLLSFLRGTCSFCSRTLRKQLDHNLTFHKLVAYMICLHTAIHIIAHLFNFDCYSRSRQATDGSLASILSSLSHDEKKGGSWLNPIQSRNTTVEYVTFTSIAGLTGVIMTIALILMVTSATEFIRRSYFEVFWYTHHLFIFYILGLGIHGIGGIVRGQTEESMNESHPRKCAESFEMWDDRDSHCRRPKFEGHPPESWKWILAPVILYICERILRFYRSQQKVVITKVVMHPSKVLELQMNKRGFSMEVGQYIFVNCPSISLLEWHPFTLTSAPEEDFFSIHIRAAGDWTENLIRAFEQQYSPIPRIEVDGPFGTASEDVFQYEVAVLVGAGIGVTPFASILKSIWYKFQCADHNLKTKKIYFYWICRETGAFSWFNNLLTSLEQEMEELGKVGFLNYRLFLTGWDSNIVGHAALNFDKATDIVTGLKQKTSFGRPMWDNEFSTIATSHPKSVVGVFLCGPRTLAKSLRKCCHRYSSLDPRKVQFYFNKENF

[32] = molecular target: Luciferin 4-monooxygenase (Photinus pyralis, UniProt P08659); assay: Counter Screen for Luciferase-based Assay Positives. [Related pubchem assays: 620, 618, 411 ]
Luciferin 4-monooxygenase, sequence (P08659 whole entry): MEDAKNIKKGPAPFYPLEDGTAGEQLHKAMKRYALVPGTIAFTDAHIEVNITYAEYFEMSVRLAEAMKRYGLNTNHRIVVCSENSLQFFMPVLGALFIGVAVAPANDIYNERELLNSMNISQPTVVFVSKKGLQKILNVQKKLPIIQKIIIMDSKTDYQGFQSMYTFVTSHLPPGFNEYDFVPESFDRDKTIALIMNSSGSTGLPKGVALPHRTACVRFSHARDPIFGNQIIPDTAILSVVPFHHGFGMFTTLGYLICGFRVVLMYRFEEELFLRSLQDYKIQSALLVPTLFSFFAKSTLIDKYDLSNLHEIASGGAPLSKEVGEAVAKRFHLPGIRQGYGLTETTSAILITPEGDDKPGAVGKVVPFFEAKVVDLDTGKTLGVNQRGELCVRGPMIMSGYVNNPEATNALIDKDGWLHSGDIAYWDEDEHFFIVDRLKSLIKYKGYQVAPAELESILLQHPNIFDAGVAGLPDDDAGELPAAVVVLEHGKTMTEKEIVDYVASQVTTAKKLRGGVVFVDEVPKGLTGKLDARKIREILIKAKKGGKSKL

[33] = test system: HT-1080; assay: HT1080 cell viability loss – fluorescence readout (AID 620); format: functional, cell-based; conditions: Homo sapiens
[34] = antiviral protection against BTV-induced cell death – arbovirus, BSR cells, confirmation (AID 1250); format: functional;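 also: protection from viral cytopathic effect measured as cell viability by ATP luminescence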
[35] = test system: Vero; assay: cells; format: functional; conditions: Chlorocebus sabaeus
[36] = HEK-293T viability loss after treatment – luminescence, T-cell screen hits, cytotoxicity control for TCR NF-kB inhibitor project, dose response (AID 489026); format: functional, cell-based;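 also: cells exposed to compound about 14 hours before the viability readout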
[37] = cells; format: functional, cell-based; remark: listed apart in the source
[38] = molecular target: T4, Nuclear receptor subfamily 0 group B member 1 (Homo sapiens, UniProt P51843); format: functional, cell-based;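 also: HEK293T cells transfected with SF-1 and DAX-1 plus StAR promoter luciferase reporter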
T4 sequence (P51843 whole entry): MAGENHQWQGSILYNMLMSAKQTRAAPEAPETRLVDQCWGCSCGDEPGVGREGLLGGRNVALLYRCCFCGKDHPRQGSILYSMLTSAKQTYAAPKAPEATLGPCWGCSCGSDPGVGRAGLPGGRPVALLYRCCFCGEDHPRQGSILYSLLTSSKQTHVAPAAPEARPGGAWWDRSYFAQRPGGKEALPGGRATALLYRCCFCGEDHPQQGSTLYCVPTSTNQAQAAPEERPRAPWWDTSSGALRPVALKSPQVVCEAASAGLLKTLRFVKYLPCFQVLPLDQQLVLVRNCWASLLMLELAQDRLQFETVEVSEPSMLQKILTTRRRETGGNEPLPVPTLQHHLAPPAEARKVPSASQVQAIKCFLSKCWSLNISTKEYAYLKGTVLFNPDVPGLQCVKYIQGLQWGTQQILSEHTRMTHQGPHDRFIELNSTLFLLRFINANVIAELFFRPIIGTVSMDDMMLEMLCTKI

[39] = blockers of bursicon-stimulated LGR2 cAMP reporter – cell-based, HEK293, CRE-luciferase reporter, cherry pick, set 2, dose response (AID 743343); format: functional;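 also: transfected cells were stimulated with diluted bursicon conditioned medium after compound addition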
[40] = blockade of melanocortin 4 receptor signaling – cell-based, plate reader, cherry pick, counter-screen for LGR2 antagonist project, dose response (AID 743444); format: functional;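 also: transfected HEK 293 cells stimulated with alpha-MSH peptide; potency of inhibitors of the alpha-MSH evoked signal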
[41] = molecular target: Cytochrome P450 2C19 (Homo sapiens, UniProt P33261); assay: Cytochrome panel assay with activity outcomes. Panel member name: p450-cyp2c19 Compounds with AC50 equal or less than 10 uM are considered active; format: functional; conditions: read-out: AC50

In the case of `Oc1nc(-c2ccccn2)nc2sc(-c3ccccc3)cc12`, the EC50 [1] is reported as 0.571 µM (active), the EC50 [2] is reported as 17.6 µM (active) and the EC50 [3] is reported as 4.87 µM (active). For the same compound, the CC50 [4] was 2.08 µM (active), the EC50 [5] was 16.2 µM (active) and the EC50 [6] was 0.216 µM (active). The EC50 [7] was 16.6 µM (active), the EC50 [8] was 1.27 µM (active) and the EC50 [9] was 15.6 µM (inconclusive). For the same compound, the EC50 [10] was 121 µM (inconclusive), the EC50 [11] was 13.2 µM (active) and the IC50 [12] was 7 µM (active).

For `COc1ccc(Cc2nc(-c3ccc(NC(=O)c4cccnc4)cc3)no2)cc1`, the EC50 [13] was 11.2 µM (active), the EC50 [2] was > 150 µM (inconclusive) and the EC50 [14] was 8.73 µM (active). For the same compound, the EC50 [15] was 5.99 µM (active), the EC50 [5] was 2.38 µM (active) and the IC50 [16] was 0.649 µM (active). The EC50 [9] was > 150 µM (not active), the EC50 [10] was > 150 µM (not active) and the IC50 [17] was > 80 µM (inactive). For the same compound, the EC50 [18] was 58.4 µM (active) and the AC50 [19] was < 0.195 µM (active).

With `O=C(NCc1ccco1)c1cccn2c(=O)c3cc4ccccc4cc3nc12` the IC50 [20] was > 50 µM (not active), the EC50 [21] was 12.4 µM (active) and the EC50 [22] was 10.7 µM (active). The IC50 [23] was > 50 µM (not active).

With `O=C(C1=C[C@@H](c2ccc(Br)cc2)C[C@@H](OCCCCO)O1)N1CCN(Cc2ccc3c(c2)OCO3)CC1` the EC50 [24] was > 79.4 µM (not active), the EC50 [25] was > 79.4 µM (not active) and the EC50 [13] was 16.3 µM (active). For the same compound, the EC50 [26] was > 79.4 µM (not active) and the EC50 [15] was 20.5 µM (active).

For `CS(=O)(=O)N(Cc1ccccc1)c1ccc(C(=O)N2CCN(c3cccc(Cl)c3)CC2)cc1`, the CC50 [27] was > 40 µM (active).

In the case of `CC1CCc2c(sc3nc(SCC(=O)NCc4ccco4)nc(N)c23)C1` (centres undefined), the EC50 [24] is reported as > 79.4 µM (not active), the EC50 [25] is reported as > 79.4 µM (not active) and the EC50 [26] is reported as > 79.4 µM (not active).

In the case of `CN1CCN(C2=C(Cl)C(=O)N(c3ccc(Cl)cc3Cl)C2=O)CC1`, the IC50 [28] is reported as > 100 µM (not active), the IC50 [29] is reported as 1.36 µM (active) and the IC50 [30] is reported as 2.62 µM (active).

For `[O-][S+]1c2ccccc2Nc2ccccc21`, the IC50 [31] was > 20 µM (not active).

With `Cc1ccccc1NC(=O)c1cnc2ccccn2c1=O` the EC50 [32] was 46.4 µM (active) and the EC50 [33] was > 50 µM (not active).

In the case of `O=C1C(Cl)=C(Cl)C(=O)N1c1ccc(Cl)c(Cl)c1`, the IC50 [28] is reported as > 100 µM (not active), the IC50 [29] is reported as 0.77 µM (active) and the IC50 [30] is reported as 1.15 µM (active).

With `CCc1ccc(CC2S/C(=C(\C#N)C(C)=O)NC2=O)cc1` (centres undefined) the IC50 [34] was 27.9 µM (active), the IC50 [12] was 13.2 µM (active) and the CC50 [35] was > 25 µM (active).

For `CC(=O)N1c2ccccc2S(=O)(=O)c2ccccc21`, the IC50 [31] was > 20 µM (not active).

In the case of `CCOCCOC(=O)c1[nH]c2c(c1C)C(=O)CC(c1ccccc1)C2` (centres undefined), the EC50 [2] is reported as 0.851 µM (inconclusive), the EC50 [5] is reported as 12.6 µM (active) and the IC50 [16] is reported as 0.521 µM (active). The EC50 [9] was 0.756 µM (active), the EC50 [10] was 1.29 µM (active) and the IC50 [36] was > 80 µM (inactive). For the same compound, the EC50 [18] was < 0.104 µM (inconclusive).

In the case of `CC(C)Nc1ncnc2c1cnn2-c1ccc(Cl)cc1`, the EC50 [32] is reported as 15.3 µM (active), the EC50 [33] is reported as > 50 µM (not active) and the IC50 [37] is reported as > 67.5 µM (inactive). The IC50 [38] was > 67.5 µM (inactive), the AC50 [39] was 11.9 µM (active) and the AC50 [40] was 13.3 µM (active).

With `O=c1oc(-c2cccs2)nc2ccc(Br)cc12` the IC50 [34] was 28.9 µM (active) and the AC50 [41] was 22.4 µM (inconclusive).
